The results in this text go back to US20100317730A1, “Treatment for menopausal and perimenopausal vasomotor symptons” (priority 2009, published 2010).

The test system of this data set is perimenopausal and menopausal vasomotor symptoms, hot flashes and excessive sweating. The data set can be described thus: Clinical use of topiramate for menopausal and perimenopausal vasomotor symptoms. The format is in vivo, human. An excerpt: Based on data and observations made by the inventor, they have found topiramate to have the following, previously undiscovered, beneficial pharmacological effects for patients with excessive sweating and hot flashes. They are as follows: • 1. […] Helps to prevent patients from experiencing hot flashes, excessive sweating, and vasomotor symptoms associated with their perimenopause and menopause. • 3. Substantial improve or completely suppress nighttime vasomotor symptoms, excessive sweating, and hot flashes associated with perimenopause and menopause. • 4. Substantial improve or completely suppress daytime vasomotor symptoms, excessive sweating, and hot flashes associated with perimenopause and menopause. • 5. Effective in controlling these symptoms when taken only on an as needed basis. […] Optionally, the topiramate can be taken as a low dose on an as-needed basis. […] a person had been stable on their current treatment for Panic and Major Depressive Disorders with a satisfactory remission for several years and without any side effect complaints. However, now […], they started developing menopausal symptoms of hot flashes and excessive sweating. After counselling and informed consent about the off-label use, they took a trial of topiramate 25 mg by mouth twice daily. Upon follow up, they confirmed that the excessive sweating was improved with this low dose of topiramate and that they have found it to be effective when taken on an as needed basis, depending on their expectations of physical activity and weather/temperature conditions. […] Several other similar clinical examples were observed.

In the case of `CC1(C)O[C@@H]2[C@@H](CO[C@@]3(COS(N)(=O)=O)OC(C)(C)O[C@@H]23)O1` [topiramate], under “A person, menopausal hot flashes and excessive sweating, topiramate 25 mg by mouth twice daily, at follow up”, the excessive sweating entry is “improved”. The “effectiveness when taken on an as needed basis” value (A person, low dose topiramate taken as needed, depending on physical activity and weather/temperature) is given as “effective”. In addition, the adverse effects entry (A person, topiramate 25 mg by mouth twice daily) is recorded as “no adverse effects”. The side effects result (inventor's patients, small doses) was “minimal to no side effects”. Besides, for the setting “perimenopausal and menopausal patients, inventor's data and observations”, the “vasomotor symptoms, excessive sweating and hot flashes” value is recorded as “Substantial improvement”. In addition, the “treating hot flashes and hyperhidrosis” value (perimenopausal and menopausal women, doses as low as 12.5 mg per day) was “highly effective”.
